Consider 2 molecules from EP1495019B1, “GLUCOPYRANOSIDE, PROCESS FOR ISOLATION THEREOF, PHARMACEUTICAL COMPOSITION CONTAINING SAME AND USE THEREOF” (COUNCIL OF SCIENTIFIC AND INDUSTRIAL RESEARCH, priority 2002, dated 2003).

This test has as its system Wistar rats. The experiment in a line: hypoglycaemic activity in 18 hour fasted Wistar rats. Type of test: in vivo. As for the experimental part: The compound was evaluated for hypoglycaemic activity in 18 hour fasted Wistar rats. […] The mean fall recorded was 24 mg/100 ml blood, from an initial mean of 91 to mean of 67 mg/100 ml blood.

SMILES strings stand for the structures.

For the molecule `CCCNC(=O)NS(=O)(=O)c1ccc(Cl)cc1` [chlorpropamide, reference compound], where the note is “positive control, dose not given”, the mean fall is listed as 18 mg/100 ml of blood.
Regarding `OC[C@H]1O[C@@H](c2c(O)ccc3cc(Cc4ccc(O)cc4)oc23)[C@H](O)[C@@H](O)[C@@H]1O` [formula 1, 6-hydroxy-2-p-hydroxybenzylbenzofuran-7-C-β-D-glucopyranoside], for the setting “dose of 15 mg/kg p.o.”, the hypoglycaemic effect entry was “hypoglycaemic effect was recorded in all the treated rats”. In addition, the “mean (after treatment)” value (dose of 15 mg/kg p.o., from an initial mean of 91) is listed as 67 mg/100 ml blood. This molecule also gave a mean fall (dose of 15 mg/kg p.o., initial mean of 91 mg/100 ml blood) of 24 mg/100 ml blood.
